Tests used:
TNF-α = assay: Inflammatory factor TNF-α in blood and brain tissues of rats with acute cerebral ischemia-reperfusion; assay type: in vivo, SD rats; conditions: 4 mg/kg iv 2 h after reperfusion; 4 h after administration; n=5
Experimental: (§1) Trial method: Effects on inflammatory factors and blood viscosity of rats with acute cerebral ischemia-reperfusion: 70 Male SD rats underwent an MACO surgery by a suture method, and after the surgery, alive rats were randomly grouped (into 7 groups, the number of successful animals in each group was guaranteed to be 6 to 8). Blood perfusion was recovered 2 h after MCAO, and corresponding trial medicaments were intravenously injected 2 h after blood reperfusion. 4 hours after the administration, blood was collected and the rats were sacrificed to take out brain tissues. The brain tissues and part of the blood were centrifuged to collect serum which was detected for inflammatory factors, and part of the blood was detected for blood viscosity by using a blood viscometer. Detected indicators: cerebral infarction area; inflammatory factors IL-1β and TNF-α; and blood viscosity.
(§2) Table 3 lists results of effects of phenylpropionate compounds (4 mg/kg) on inflammatory factors in blood and brain tissues of rats (n=5).

IL-1β = assay: Inflammatory factor IL-1β in blood and brain tissues of rats with acute cerebral ischemia-reperfusion; assay type: in vivo, SD rats; conditions: 4 mg/kg iv 2 h after reperfusion; 4 h after administration; n=5
Experimental: as §1, §2

SD rats = assay: Acute toxicity, single-dose intravenous injection in SD rats; assay type: in vivo; conditions: for tolerance: single-dose intravenous injection (5, 10, 20 mg/kg); for toxic side effects: single-dose intravenous injection up to 20 mg/kg, observed to day 8
Source text: In this example, Compound A and Compound C were studied for acute toxicity by a method described below.
Trial method: 30 SD rats, half male and half female, were used. The average weight was 160-200 g for female rats and 180-220 g for male rats when grouped. An individual weight should be within ±20% of the average weight. Before trial, animals were accommodated environment for at least 5 days, and healthy rats (female rats should be not pregnant) were selected as trial animals. Matter inspected during the accommodation period mainly was: whether the rats were consistent with quality indicators required in the order; inspection of general condition; and whether the weight was within the weight range required by the trial. Unqualified abnormal animals were excluded from the trial. A single dosage was injected through tail veins of rats at low, medium, or high dose. The doses were adjusted to be 5 mg/kg, 10 mg/kg, and 20 mg/kg, respectively according to blank preparation pre-trials. A control group was set in which a same volume of vehicle was intravenously injected.
The rats were observed about 0-2 h and 4-6 h after each administration. If a toxicity symptom occurs, the animal may be observed more times. (2) Gross anatomical observation: On the 8th day of the trial, all surviving rats in each group were dissected and observed, and administration sites and abnormal organs and tissues which were identified through gross anatomical observation to be potentially related to trial samples were photographed and recorded. (3) Disposal of dying animals: Status of rats and observation time were recorded, and their weights were measured. (4) Disposal of dead animals: The time of death or when a rat was found dead were recorded. The rat was measured for weight before quickly dissected for gross observation and speculated for cause of death.

[1] = test system: rats with acute cerebral ischemia-reperfusion; assay: Cerebral infarction area of rats with acute cerebral ischemia-reperfusion (MCAO, suture method); assay type: in vivo, SD rats; design: Cerebral Infarction Area: unit not given here; conditions: n=5; for Cerebral Infarction Area: 4 mg/kg iv 2 h after reperfusion (2 h MCAO), sampled 4 h after administration; for inhibition in vivo at 4 mg/kg: Rattus norvegicus, 4 h, 4 mg/kg iv 2 h after reperfusion, vs solvent control, read-out: Percentage of Cerebral Infarction Area Reduction
Experimental: as §1
Table 1 lists results of effects of phenylpropionate compounds (4 mg/kg) on cerebral infarction area of rats with acute cerebral ischemia (n=5).

[2] = test system: SD rat model of focal ischemia-reperfusion; assay: Dose-effect relationship in SD rat model of focal ischemia-reperfusion (MCAO); assay type: in vivo, SD rats; conditions: given 2 h after reperfusion, mean ± standard error; for Score of Symptoms of Neurological Deficits: 48 h, modified Bederson 5-point scale; for Infarction area: evaluated after 48 h
Experimental: In this example, phenylpropionate compounds were studied for dose-effect relationship, with D-bornyl ferulate (administrated at 4.0 mg/kg) and D-tanshinol borneol ester (administrated at 4.0 mg/kg) as positive control drugs. Structures of D-bornyl ferulate (Patent Application No.: 201510243181.5) and D-tanshinol borneol ester compounds are as follows:
Trial method: A cerebral ischemia reperfusion model of middle cerebral artery occlusion (MCAO) was prepared by an internal carotid artery suture method. An animal was anesthetized with 10% chloral hydrate (3.6 mL/kg) and then fixed on an operating table in a supine position. Its skin was disinfected, and a midline incision was made on the neck. The right common carotid artery, external carotid artery, and internal carotid artery were separated, the vagus nerve was gently striped off, and the external carotid artery was ligated and cut. The common carotid artery was clamped at the proximal end. […] The nylon thread was advanced through the bifurcation of the common carotid artery into the internal carotid artery, and then was slowly inserted until there was slight resistance (about 20 mm from the bifurcation) to block all the blood supply to the middle cerebral artery. 2 h after cerebral ischemia, the nylon thread was gently pulled out to restore blood supply for reperfusion, and the neck skin was sutured and disinfected. The animal was put back in a cage and raised. During the modeling operation, animals with abnormal conditions due to anesthesia, surgery, etc. were excluded, and successfully modeled animals were randomly grouped. Schemes were set according to different trial doses, and drug treatment was given 2 h after cerebral ischemia-reperfusion. Death conditions were recorded every day after the surgery, and indicators were evaluated after 48 h. In the whole trial process, general conditions were observed, mainly including: death, coma, breathing, urine and feces traits, hair colors, mental status, vomiting and vomitus, bleeding, convulsion, spasm, etc. Abnormal animals due to unexpected factors were excluded. Finally, unblinding was conducted by a person who made blind trials.
Evaluated indicator: (1) Evaluation of symptoms of neurological deficits: The symptoms of neurological deficits were evaluated by using a modified Bederson 5-point scale. A single-blind method was used for evaluating the symptoms of neurological deficits in rats with brain trauma. That is, a trial designer marked animals in accordance with groups, and an experimenter who scored the symptoms of neurological deficits had no knowledge of how the animals were grouped. After scoring was completed, the scorer submitted scoring results for various marks to the designer, and the designer performed unblinding to obtain scores of animals in each trial group. (2) Measurement of cerebral infarction area: A method reported in the literature was used. An animal was anesthetized with 10% chloral hydrate and decapitated to collect brain. The olfactory bulb, cerebellum and lower brain stem were removed. Blood stains on the surface of the brain were rinsed with normal saline, the residual water stains on the surface were absorbed, and the brain was placed at −80° C. for 7 min. After the brain was taken out, a coronal section was immediately made at downwards and vertical to the sight intersection plane, and brain slices were made every 2 mm backwards. Brain slices were placed in a TTC (20 g/L) dye solution prepared with 0.9% normal saline, and incubated at 37° C. for 90 min. Normal brain tissues were stained deep red, and ischemic brain tissues were pale-white. After rinsed with normal saline, the brain sections were quickly arranged in order from front to back, the residual water stains on the surface were absorbed to dryness, and pictures were taken. Image analysis software was used for statistics on the pictures. […]

What does the source list for COc1cc(CCC(=O)O[C@H]2C[C@H]3CC[C@]2(C)C3(C)C)cc(F)c1O [Compound A]?
TNF-α (TNF-α): 615 ± 42.9 ng/L; IL-1β (IL-1β): 53.8 ± 6.4 ng/L; tolerance (SD rats): 20 mg/kg; toxic side effects (SD rats): no obvious toxic side effects; Cerebral Infarction Area [1]: 18.6 ± 2.65; inhibition in vivo at 4 mg/kg [1]: 49.3%; Score of Symptoms of Neurological Deficits ([2]; 2.0 mg/kg): 2.05 ± 0.20; Infarction area ([2]; 2.0 mg/kg): 24.73 ± 2.63 %; Score of Symptoms of Neurological Deficits ([2]; 4.0 mg/kg): 1.94 ± 0.19; Infarction area ([2]; 4.0 mg/kg): 20.25 ± 2.53 %; Score of Symptoms of Neurological Deficits ([2]; 8.0 mg/kg): 1.75 ± 0.21; Infarction area ([2]; 8.0 mg/kg): 18.38 ± 2.74 %

For COc1cc(CCC(=O)O[C@H]2C[C@H]3CC[C@]2(C)C3(C)C)cc(OC)c1O [Compound C], which TNF-α (TNF-α) is on record?
Its TNF-α is 634 ± 25.1 ng/L.

What about the IL-1β (IL-1β) of the same molecule?
The IL-1β was 59.3 ± 8.7 ng/L.

What about the tolerance (SD rats) of the same molecule?
Its tolerance is 20 mg/kg.

And the toxic side effects (SD rats)?
Its toxic side effects is “no obvious toxic side effects”.

What about the “Cerebral Infarction Area” value [1] of the same molecule?
Its value is 19.6 ± 5.38.

What about the inhibition in vivo at 4 mg/kg [1] of the same molecule?
Its inhibition in vivo at 4 mg/kg is 46.6%.

And the “Score of Symptoms of Neurological Deficits” value ([2]; 2.0 mg/kg)?
The value was 2.45 ± 0.13.

And the Infarction area ([2]; 2.0 mg/kg)?
The Infarction area was 22.24 ± 2.84 %.

And the “Score of Symptoms of Neurological Deficits” value ([2]; 4.0 mg/kg)?
Its value is 2.18 ± 0.23.

What about the Infarction area ([2]; 4.0 mg/kg) of the same molecule?
The Infarction area was 21.04 ± 2.14 %.

What about the “Score of Symptoms of Neurological Deficits” value ([2]; 8.0 mg/kg) of the same molecule?
The value was 1.98 ± 0.14.

And the Infarction area ([2]; 8.0 mg/kg)?
Its Infarction area is 19.32 ± 3.53 %.
